This is an account of results in ChEMBL document CHEMBL2073790, “TP-search Transporter Database” (Jpn Pharmacol Ther, 1998).

Structures are written as SMILES.

For data set [1], the target named is Multidrug resistance protein 1a (Rattus norvegicus) (UniProt Q6PSM0). Put plainly: (§1) TP_TRANSPORTER: Northern blot in vivo Wistar rat. Type of data set: functional, organism-based.
The target in data set [2] is T1, Solute carrier organic anion transporter family member 1A1 (Rattus norvegicus, UniProt P46720).
T1 sequence (P46720 whole entry): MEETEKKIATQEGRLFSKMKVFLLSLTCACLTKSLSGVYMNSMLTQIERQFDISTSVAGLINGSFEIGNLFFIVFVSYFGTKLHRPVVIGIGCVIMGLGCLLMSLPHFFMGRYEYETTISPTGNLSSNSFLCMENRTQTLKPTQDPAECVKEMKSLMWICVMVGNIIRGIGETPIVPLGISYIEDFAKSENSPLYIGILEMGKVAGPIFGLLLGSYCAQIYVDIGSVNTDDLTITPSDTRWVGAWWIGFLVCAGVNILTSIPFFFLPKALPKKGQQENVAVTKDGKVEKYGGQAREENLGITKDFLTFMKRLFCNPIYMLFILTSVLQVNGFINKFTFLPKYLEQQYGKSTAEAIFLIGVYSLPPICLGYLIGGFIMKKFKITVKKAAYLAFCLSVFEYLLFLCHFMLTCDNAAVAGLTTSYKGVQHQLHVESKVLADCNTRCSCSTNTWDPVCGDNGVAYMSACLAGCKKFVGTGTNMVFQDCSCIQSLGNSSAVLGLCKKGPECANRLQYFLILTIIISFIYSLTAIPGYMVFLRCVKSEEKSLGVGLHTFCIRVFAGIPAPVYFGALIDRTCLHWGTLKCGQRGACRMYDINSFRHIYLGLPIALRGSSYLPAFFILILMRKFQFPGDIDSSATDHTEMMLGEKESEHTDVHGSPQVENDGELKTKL
Described as §1. The class given is functional, organism-based.

Chain of Multidrug resistance protein 1a (Rattus norvegicus) (Q6PSM0 as listed by the source): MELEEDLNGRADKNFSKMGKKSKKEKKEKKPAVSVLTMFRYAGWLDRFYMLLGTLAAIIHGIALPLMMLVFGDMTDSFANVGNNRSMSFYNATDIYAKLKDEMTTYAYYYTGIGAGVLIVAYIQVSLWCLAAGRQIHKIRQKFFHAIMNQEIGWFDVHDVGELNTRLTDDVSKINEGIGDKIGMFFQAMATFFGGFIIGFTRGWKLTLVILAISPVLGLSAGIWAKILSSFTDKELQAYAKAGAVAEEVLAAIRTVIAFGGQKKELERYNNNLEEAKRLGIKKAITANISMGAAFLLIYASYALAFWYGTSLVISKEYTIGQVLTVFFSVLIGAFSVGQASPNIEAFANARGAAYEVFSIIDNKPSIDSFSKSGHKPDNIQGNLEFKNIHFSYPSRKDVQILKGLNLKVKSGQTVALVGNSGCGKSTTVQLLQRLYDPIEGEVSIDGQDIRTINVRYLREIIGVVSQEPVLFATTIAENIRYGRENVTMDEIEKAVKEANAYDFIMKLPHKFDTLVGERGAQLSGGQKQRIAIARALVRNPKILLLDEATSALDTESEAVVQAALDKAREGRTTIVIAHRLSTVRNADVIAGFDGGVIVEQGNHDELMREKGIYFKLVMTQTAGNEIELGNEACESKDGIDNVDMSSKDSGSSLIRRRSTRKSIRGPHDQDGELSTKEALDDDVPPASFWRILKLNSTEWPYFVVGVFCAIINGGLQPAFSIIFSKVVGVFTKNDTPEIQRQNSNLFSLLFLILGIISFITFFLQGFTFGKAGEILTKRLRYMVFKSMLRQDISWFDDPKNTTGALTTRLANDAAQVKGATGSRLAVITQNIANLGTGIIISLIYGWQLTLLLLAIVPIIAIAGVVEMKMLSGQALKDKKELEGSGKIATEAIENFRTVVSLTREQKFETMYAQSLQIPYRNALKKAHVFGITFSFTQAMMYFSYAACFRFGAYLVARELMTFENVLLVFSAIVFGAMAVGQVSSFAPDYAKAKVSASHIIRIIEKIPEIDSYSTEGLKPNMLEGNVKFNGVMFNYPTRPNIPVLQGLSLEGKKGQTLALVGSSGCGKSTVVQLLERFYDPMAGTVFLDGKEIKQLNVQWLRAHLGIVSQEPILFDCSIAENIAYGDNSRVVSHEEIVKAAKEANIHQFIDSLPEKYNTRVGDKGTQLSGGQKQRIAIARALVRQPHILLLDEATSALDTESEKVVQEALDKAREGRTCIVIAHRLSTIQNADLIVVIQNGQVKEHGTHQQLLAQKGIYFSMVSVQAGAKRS

Regarding `O=C=Nc1cccc2ccccc12` [alpha-naphthylisocyanate], the Activity entry in data set [1] and in data set [2] was “inducer [+]” in each case.
